Test results taken from ChEMBL document CHEMBL1201862, “PubChem BioAssay data set” (2004).
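Results reflect a 48-hour exposure of cells in 96-well plates to compound at five concentrations. GI50 = concentration required for 50% inhibition of growth.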 Calls of active or inactive are those of the source. Cut-off read from the data, not from the text of the source: active = GI50 up to about 1.1 µM and inactive = higher.

Experiments:
Assay in all cases: growth of human tumour cells (NCI), 48 h
[1] = system: UACC-257
[2] = system: DU-145
[3] = system: HT-29
[4] = system: ACHN
[5] = system: K562
[6] = system: MDA-MB-435
[7] = system: TK-10
[8] = system: BT-549
[9] = system: EKVX
[10] = system: CAKI-1
[11] = system: RXF 393
[12] = system: HCC 2998
[13] = system: HOP-62
[14] = system: MOLT-4
[15] = system: MDA-MB-231
[16] = system: A549
[17] = system: U-251
[18] = system: SK-OV-3
[19] = system: MDA-N

Row | SMILES | GI50 [1] | GI50 [2] | GI50 [3] | GI50 [4] | GI50 [5] | GI50 [6] | GI50 [7] | GI50 [8] | GI50 [9] | GI50 [10] | GI50 [11] | GI50 [12] | GI50 [13] | GI50 [14] | GI50 [15] | GI50 [16] | GI50 [17] | GI50 [18] | GI50 [19]
1 | CCN(CC)/C(Cl)=C(Cl)\C(=C1\Nc2ccc(OC)cc21)[N+](=O)[O-] | 75.5 µM (inactive) | 37.8 µM (inactive) | 56.2 µM (inactive) | 98.2 µM (inactive) | 31.7 µM (inactive) | 37.2 µM (inactive) | 83.6 µM (inactive) | 37.1 µM (inactive) | 30.1 µM (inactive) | 59 µM (inactive) | 15.7 µM (inactive) | > 100 µM (inactive) | 78.7 µM (inactive) | 23.1 µM (inactive) | 45.5 µM (inactive) | 58.9 µM (inactive) | 37.5 µM (inactive) | 75.5 µM (inactive) | 50.4 µM (inactive)
2 | CCCCn1c(C)c2c(c1C)C(=O)N(CC(O)CN1CCc3ccccc3C1)C2=O (stereo not given) | 33.4 µM (inactive) | > 100 µM (inactive) | 37.8 µM (inactive) | 36.7 µM (inactive) | 47.2 µM (inactive) | 60.1 µM (inactive) | 67.3 µM (inactive) | > 100 µM (inactive) | 12.3 µM (inactive) | 80.2 µM (inactive) | 67.6 µM (inactive) | 39.8 µM (inactive) | > 100 µM (inactive) | 38.3 µM (inactive) | > 100 µM (inactive) | 88.3 µM (inactive) | 81.5 µM (inactive) | > 100 µM (inactive) | 70 µM (inactive)
3 | Nc1cc(N)c(/N=N/c2cccc3c(S(=O)(=O)O)cccc23)cc1/N=N/c1cc([N+](=O)[O-])ccc1O | 26.3 µM (inactive) | 30.3 µM (inactive) | 43.8 µM (inactive) | 22.2 µM (inactive) | 38.7 µM (inactive) | 35.6 µM (inactive) | 47 µM (inactive) | 31.6 µM (inactive) | > 100 µM (inactive) | 23.6 µM (inactive) | 70.3 µM (inactive) | 23.2 µM (inactive) | 29.9 µM (inactive) | 20.3 µM (inactive) | 14.6 µM (inactive) | 25.5 µM (inactive) | 13.7 µM (inactive) | 59.7 µM (inactive) | 46.9 µM (inactive)
4 | O=C1c2ccccc2C(=O)N1CCCSc1ccccc1 | 39.7 µM (inactive) | > 100 µM (inactive) | 31.2 µM (inactive) | > 100 µM (inactive) | 77.1 µM (inactive) | > 100 µM (inactive) | > 100 µM (inactive) | > 100 µM (inactive) | 57.1 µM (inactive) | 93.1 µM (inactive) | 63.7 µM (inactive) | 25.1 µM (inactive) | > 100 µM (inactive) | 31.8 µM (inactive) | > 100 µM (inactive) | 76.2 µM (inactive) | 91.4 µM (inactive) | > 100 µM (inactive) | 91.4 µM (inactive)
5 | C/C=C(\C)C(O)C(C)C(O)C/C=C(C)/C=C(\C)C/C(C)=C/C/C=C(\C)C(O)C(C)c1ccc(CCC)c(=O)o1 (stereo not given) | 0.249 µM (active) | < 0.01 µM (active) | 1.69 µM (inactive) | < 0.01 µM (active) | 0.501 µM (active) | 9.12 µM (inactive) | 17.5 µM (inactive) | 11.8 µM (inactive) | 17.5 µM (inactive) | 12.9 µM (inactive) | 26.7 µM (inactive) | 12.9 µM (inactive) | 16.2 µM (inactive) | 20 µM (inactive) | 13.2 µM (inactive) | 3.57 µM (inactive) | 11.4 µM (inactive) | 32.2 µM (inactive) | 8.77 µM (inactive)
6 | CCC/C=C/C=C/C1CC(O)C(O)C(=O)C1CO (stereo not given) | > 100 µM (inactive) | > 100 µM (inactive) | > 100 µM (inactive) | > 100 µM (inactive) | > 100 µM (inactive) | > 100 µM (inactive) | > 100 µM (inactive) | > 100 µM (inactive) | > 100 µM (inactive) | > 100 µM (inactive) | > 100 µM (inactive) | > 100 µM (inactive) | – | – | > 100 µM (inactive) | > 100 µM (inactive) | > 100 µM (inactive) | > 100 µM (inactive) | > 100 µM (inactive)
7 | O=C(CSC1=NCCN1)Nc1ccccc1 | 17.1 µM (inactive) | 33.7 µM (inactive) | 31.4 µM (inactive) | 22.4 µM (inactive) | 40.6 µM (inactive) | 34.8 µM (inactive) | 19.2 µM (inactive) | 24.5 µM (inactive) | 45.2 µM (inactive) | 73.8 µM (inactive) | 13.8 µM (inactive) | 23.8 µM (inactive) | 48 µM (inactive) | 52.1 µM (inactive) | 20.6 µM (inactive) | > 100 µM (inactive) | 18.3 µM (inactive) | – | 17.7 µM (inactive)
